# Test results published in patent US20020035157A1, “Pharmaceutical compositions” (priority 1999, published 2002).
# Where two headings read alike, the source gives them in different places.
# Legend:
# [1] = test system: patients with osteoarthritis pain
# patients = settings: cited from earlier work
# [2] = test system: patients with osteoarthritis pain; assay: Randomised, double blind, placebo controlled study in painful osteoarthritis: pain scores, analgesic consumption, desire to continue (Example 2); assay type: in vivo, human; settings: for Reduction in pain score (VAS): after 42 days versus baseline pain score 4.2 (mean of days 1-4); for Reduction in pain score (VAS) compared to placebo: after 42 days, decrease beyond that given by cream vehicle alone; for percentage of patients who wished to continue with treatment: after six weeks; for Reduction in daily tablet consumption / Tablets per day after treatment: analgesic use; for Reduction in daily tablet consumption: from initial mean of 4 tablets daily; for Tablets per day after treatment: at beginning of treatment 4 tablets per day; for Mean Pain Score after 42 days (VAS): cream four times daily for six weeks to one painful joint, 0-10 VAS, baseline pain score 4.2; for Patients not wishing to continue / Patients wishing to continue: desire to continue with current treatment after six weeks
# healthy individuals = settings: 0.1 ml cream on 1 inch^2 of dorsum of non-dominant hand, single application, rated after 6 hours, 0-10 VAS, 40 volunteers
SMILES,"Application discomfort - Baseline scores versus treatment, VAS ([1]; regression estimate of baseline discomfort relative to the other groups, 10 cm VAS)","patients who suffered burning after application (patients; 0.025% capsaicin, Watson and colleagues, Clinical Therapeutics 1993)","patients who suffered burning discomfort after application (patients; 0.075% capsaicin, The Capsaicin Study Group)",Reduction in pain score (VAS) [2],Reduction in pain score (VAS) compared to placebo [2],percentage of patients who wished to continue with treatment [2],Reduction in daily tablet consumption [2],Reduction in daily tablet consumption ([2]; listed as capsaicin),Tablets per day after treatment [2],Mean Pain Score after 42 days (VAS) [2],Patients not wishing to continue [2],Patients wishing to continue [2],"VAS: median (range), burning discomfort (healthy individuals)","VAS: median (range), burning discomfort (healthy individuals; listed as C)",initial application discomfort ([1]; equal effect to placebo),"Application discomfort - changes resulting from baseline score, Coefficient ([1]; human, in vivo)","VAS: median (range), burning discomfort (healthy individuals; listed as D)"
"COc1cc(CNC(=O)CCCC/C=C/C(C)C)ccc1O [Capsaicin, N-(4-hydroxy-3-methoxybenzyl)-8-methylnon-trans-6-enamide]",2.1 VAS,9 of 33,87 of 138,0.5 VAS,0.28 VAS,24.4%,0.28 tablets,0.28 tablets,3.72 tablets per day,3.70 VAS,29 patients,11 patients,3 VAS,3 (0-7) VAS,–,–,–
"O=[N+]([O-])OCC(CO[N+](=O)[O-])O[N+](=O)[O-] [GTN, Glyceryl trinitrate]",–,–,–,0.59 VAS,0.37 VAS,27.5%,–,–,3.52 tablets per day,3.61 VAS,34 patients,11 patients,0 VAS,–,marginal initial discomfort,0.33,0 (0-2) VAS
